This note sets out measurements from ChEMBL document CHEMBL4715739, “7,7-Dimethylaporphine and Other Alkaloids from the Bark of Guatteria friesiana” (J Nat Prod, 2016).

Test [1] concerns B16-F10. The test can be described thus: Cytotoxicity against mouse B16-F10 cells assessed as reduction in cell viability incubated for 72 hrs by Alamar blue assay. Type of test: functional, cell-based. As to conditions: B16-F10, 72 h. (In general: Resazurin is reduced to fluorescent resorufin, in cell work by metabolically active cells.)
Test [2] deals with HepG2. Description: Cytotoxicity against human HepG2 cells assessed as reduction in cell viability incubated for 72 hrs by Alamar blue assay. Type of test: functional, cell-based. As to conditions: HepG2, 72 h.
Test [3] has as its system HL-60. The test can be described thus: Cytotoxicity against human HL-60 cells assessed as reduction in cell viability incubated for 72 hrs by Alamar blue assay. It is filed as functional, cell-based. As to conditions: HL-60, 72 h.
Test [4] has as its system K562. The test can be described thus: Cytotoxicity against human K562 cells assessed as reduction in cell viability incubated for 72 hrs by Alamar blue assay. Type of test: functional, cell-based. The conditions noted are these: K562, 72 h.
A short description of test [5]: Cytotoxicity against human PBMC cells assessed as reduction in cell viability incubated for 72 hrs by Alamar blue assay. Type of test: cell-based.

SMILES strings stand for the structures.

The IC50 is the concentration needed to halve the response being measured.

With `COc1cccc2c1C(=O)c1c(O)c3c(c(O)c1C2=O)C[C@@](O)(C(=O)CO)C[C@@H]3O[C@H]1C[C@H](N)[C@H](O)[C@H](C)O1` [DOXORUBICIN], the half-maximal inhibitory concentration (IC50) in test [1] was 2.3 µM; in test [2], 0.2 µM; in test [3], 0.8 µM; in test [4], 0.7 µM.
Take `O=C1c2ccccc2-c2c3c(cc4ccnc1c24)OCO3` [LIRIODENINE]: the IC50 in test [1] was over 10 µM; in test [2] it was 8.3 µM; in test [3], 5.5 µM; in test [4] it was 5 µM; in test [5] it was 34.8 µM.
